How the values were obtained:
[1] = test system: MOLM-13 cells; experiment: MOLM-13 cellular assay (CellTiter-Glo cell viability); format: cell-based; conditions: 72 hours exposure, cell viability by CellTiter-Glo
Protocol: In Vitro Assay: MOLM-13 Cellular Assay
MOLM-13 cells were obtained from DSMZ and were maintained in RPMI 1640+Glutamax+25 mM HEPES (Invitrogen, catalog number 72400) supplemented with 10% heat inactivated fetal bovine serum (FBS; Invitrogen, catalog number 16140). The day prior to assay set-up, cells were pelleted, resuspended in fresh media, counted, and cells were plated at 0.4×10^6 cell/mL in a T150 flask. On the day of the assay, cells were pelleted, resuspend in fresh media, counted and seeded at 5,000 cells/well in white opaque 96-well tissue culture treated microplates (Perkin Elmer, catalog number 6005680). Cells were exposed to different concentrations of test compounds at 37° C., 5% CO2 for 72 hours immediately after seeding. Cell viability was acquired on a Perkin Elmer Envision 2104 multilabel reader using the CellTiter-Glo assay (Promega) according to the manufacturer's instructions.

[2] = biological target: T1, human DHODH (Homo sapiens, UniProt Q02127); experiment: DHODH enzymatic assay (DCIP absorbance, end-point); format: biochemical; conditions: purified human DHODH, DCIP as final electron acceptor, end-point mode; read-out: hDHODH IC50
T1 construct: purchased Proteros PR-0044
T1 sequence (Q02127 whole entry): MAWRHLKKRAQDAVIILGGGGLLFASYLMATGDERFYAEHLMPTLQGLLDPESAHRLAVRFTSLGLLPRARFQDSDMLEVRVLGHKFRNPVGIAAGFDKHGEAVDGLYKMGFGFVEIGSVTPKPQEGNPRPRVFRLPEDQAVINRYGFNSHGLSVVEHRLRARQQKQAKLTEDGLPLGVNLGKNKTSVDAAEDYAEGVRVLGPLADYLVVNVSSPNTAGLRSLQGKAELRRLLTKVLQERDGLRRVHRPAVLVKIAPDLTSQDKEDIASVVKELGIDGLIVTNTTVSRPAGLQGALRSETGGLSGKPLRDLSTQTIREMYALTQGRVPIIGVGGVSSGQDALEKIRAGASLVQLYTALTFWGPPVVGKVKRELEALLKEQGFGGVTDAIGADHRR
Protocol: In vitro Assay: DHODH enzymatic assay
To detect DHODH enzyme activities, dichloroindophenol (DCIP) is added as the final electron acceptor in the assay. DCIP can accept electrons from the reduced coenzyme Q generated in the assay, or from dihydroorotate (DHO) via FMN by binding presumably to the ubiquinone pocket. […] The assay buffer contained […], pH 7.5, 150 mM NaCl, 0.5 mM EDTA, and 0.1% Triton X-100 in MilliQ water. Substrate consisting of 20 mM DHO, 5 mM CoQ6, and 1 mM DCIP in assay buffer, initiates the reaction. […] Absorbance measurements were obtained using the BMG Phera Star plate-reading spectrophotometer. Purified human DHODH was purchased from Proteros (cat. No. PR-0044). Chemicals were purchased from Sigma-Aldrich, Teknova, and Avanti Polar Lipids. Liquid handling was performed using Labcyte Echo and Formulatrix Tempest.

Compound	IC50 [1]	IC50 [2]	IC50 ([1]; Homo sapiens, MOLM-13, 72 h)
CCn1c(CO)nn(-c2cc3c(cc2F)C(=O)N(c2ccccc2Cl)CC3C(C)C)c1=O (single isomer, unassigned) [Example 36, (S*)-2-(2-Chlorophenyl)-6-(4-ethyl-3-(hydroxymethyl)-5-oxo-4,5-dihydro-1H-1,2,4-triazol-1-yl)-7-fluoro-4-isopropyl-3,4-dihydroisoquinolin-1(2H)-one]	31.6 nM	30 nM	–
C=C(C)C1CN(c2c(C)ccnc2Cl)C(=O)c2cc(F)c(-n3nc(CO)n(CC)c3=O)cc21 (racemic) [Example 45, Racemic-2-(2-chloro-4-methylpyridin-3-yl)-6-(4-ethyl-3-(hydroxymethyl)-5-oxo-4,5-dihydro-1H-1,2,4-triazol-1-yl)-7-fluoro-4-(prop-1-en-2-yl)-3,4-dihydroisoquinolin-1(2H)-one]	–	7 nM	6.98 nM
CCn1c(CO)nn(-c2ccc3c(c2)C(c2ccccc2)CN(c2cccc(F)c2)C3=O)c1=O (racemic) [Example 14, Racemic-6-(4-Ethyl-3-(hydroxymethyl)-5-oxo-4,5-dihydro-1H-1,2,4-triazol-1-yl)-2-(3-fluorophenyl)-4-phenyl-3,4-dihydroisoquinolin-1(2H)-one]	–	1030 nM	758 nM
CC[C@H](C)[C@H]1CN(c2c(F)cccc2Cl)C(=O)c2cc(F)c(-n3nc(CO)n(CC)c3=O)cc21 (relative stereo) [Example 71, (R*)-4-((S *)-sec-B utyl)-2-(2-chloro-6-fluorophenyl)-6-(4-ethyl-3-(hydroxymethyl)-5-oxo-4,5-dihydro-1H-1,2,4-triazol-1-yl)-7-fluoro-3,4-dihydroisoquinolin-1(2H)-one]	–	4 nM	4.3 nM
CC[C@@H](C)[C@H]1CN(c2c(F)cccc2Cl)C(=O)c2cc(F)c(-n3nc(CO)n(CC)c3=O)cc21 (relative stereo) [Example 72, (R*)-4-((R*)-sec-Butyl)-2-(2-chloro-6-fluorophenyl)-6-(4-ethyl-3-(hydroxymethyl)-5-oxo-4,5-dihydro-1H-1,2,4-triazol-1-yl)-7-fluoro-3,4-dihydroisoquinolin-1(2H)-one]	–	5 nM	6.57 nM
CCC[C@H](C)N1CN(c2c(F)cccc2Cl)C(=O)c2cc(F)c(-n3nc(CO)n(CC)c3=O)nc21 [Example 24, (S)-3-(2-Chloro-6-fluorophenyl)-7-(4-ethyl-3-(hydroxymethyl)-5-oxo-4,5-dihydro-1H-1,2,4-triazol-1-yl)-6-fluoro-1-(pentan-2-yl)-2,3-dihydropyrido[2,3-d]pyrimidin-4(1H)-one]	–	0.4 nM	< 1.69 nM

More lines, in order of falling IC50 [2], values ahead:

IC50 [1]	IC50 [2]	IC50 ([1]; Homo sapiens, MOLM-13, 72 h)	Compound
–	20 nM	27.5 nM	CCn1c(CO)nn(-c2cc3c(cc2F)C(=O)N(c2cc(C)ccc2F)CN3C(C)C)c1=O [Example 26, 7-(4-Ethyl-3-(hydroxymethyl)-5-oxo-4,5-dihydro-1H-1,2,4-triazol-1-yl)-6-fluoro-3-(2-fluoro-5-methylphenyl)-1-isopropyl-2,3-dihydroquinazolin-4(1H)-one]
–	20 nM	27.3 nM	CCn1c(CO)nn(-c2cc3c(cc2F)C(=O)N(c2c(F)cncc2Cl)CN3C(C)C)c1=O [Example 29, 3-(3-Chloro-5-fluoropyridin-4-yl)-7-(4-ethyl-3-(hydroxymethyl)-5-oxo-4,5-dihydro-1H-1,2,4-triazol-1-yl)-6-fluoro-1-isopropyl-2,3-dihydroquinazolin-4(1H)-one]
0.793 nM	2 nM	–	C=C(C)[C@@H]1CN(c2c(C)cnc(OC)c2Cl)C(=O)c2cc(F)c(-n3nc(CO)n(CC)c3=O)cc21 (single isomer, unassigned; atropisomer 1) [Example 62, Atropisomer 1, (S*)-2-(3-Chloro-2-methoxy-5-methylpyridin-4-yl)-6-(4-ethyl-3-(hydroxymethyl)-5-oxo-4,5-dihydro-1H-1,2,4-triazol-1-yl)-7-fluoro-4-(prop-1-en-2-yl)-3,4-dihydroisoquinolin-1(2H)-one]
–	0.9 nM	1.06 nM	C=C(C)[C@@H]1CN(c2ccccc2Cl)C(=O)c2cc(F)c(-n3nc(CO)n(CC)c3=O)cc21 (stereo in doubt) [Example 34]

Reference: patent US20220081422A1 (Janssen Biotech, Inc., priority 2019, published 2022)
